Data published in patent US7981882B2, “6-N-linked heterocycle-substituted 2,3,4,5-tetrahydro-1H-benzo[d]azepines as 5-HT2C receptor agonists” (Eli Lilly and Company, priority 2005, dated 2011).

Columns and labels:
Wistar rats [1] = conditions: cited from earlier work
male NIH Swiss mice [2] = test: Marble burying assay; type: in vivo, mouse; conditions: 30 min test, rotorod before
Excerpt: Marble burying in mice has been used to model anxiety disorders including obsessive-compulsive disorders (OCD) due to ethological study of the behavior (e.g. Gyertyan I. “Analysis of the marble burying response: Marbles serve to measure digging rather than evoke burying”, Behavioural Pharmacology 6: 24-31, (1995)) and due to the pharmacological effects of clinical standards (c.f., Njung'E K. Handley S L. “Evaluation of marble-burying behavior as a model of anxiety”, Pharmacology, Biochemistry & Behavior. 38: 63-67, (1991)); Borsini F., Podhoma J., and Marazziti, D. “Do animal models of anxiety predict anxiolytic effects of antidepressants?”, Psychopharmacology 163: 121-141, (2002)).
House experimentally-naïve male, NIH Swiss mice (Harlan Sprague-Dawley, Indianapolis, Ind.) weighing between 28-35 g in groups of 12 for at least three days prior to testing in a vivarium with 12 h light and dark cycles. Conduct experiments during the light cycle in a dimly lit experimental testing room. Dose mice with vehicle or test compound and, after a specified pretreatment interval (generally 30 min.), place each mouse individually on a rotorod (Ugo Basile 7650) operating at a speed of 6 revolutions/min. and observe for falling. […]
Clinically effective standard compounds suppress marble burying at doses that are devoid of motor-impairing effects as measured on the rotorod. […]

male NIH Swiss mice [3] = test: Nestlet shredding; type: in vivo, mouse; conditions: 30 min test
Excerpt: Mice naturally will construct nests of material available in their living environment. Since this behavior is obsessive in nature, it has been used to model OCD (Xia Li, Denise Morrow and Jeffrey M. Witkin, “Decreases in nestlet shredding of mice by serotonin uptake inhibitors: comparison with marble burying”, Psychopharmacology, submitted Jul. 14, 2003). House experimentally-naïve male, NIH Swiss mice (Harlan Sprague-Dawley, Indianapolis, Ind.) weighing between 28-35 g in groups of 12 for at least three days prior to testing in a vivarium with a 12 h light/dark cycle. Conduct experiments during the light cycle in an experimental room with normal overhead fluorescent lighting. Dose mice with vehicle or test compound and after a specified pretreatment interval (generally 30 min.), place the mice individually in a 17×28×12 cm high plastic tub with about 5 mm sawdust shavings on the floor along with a pre-weighed multi-ply gauze pad (51 mm square). After 30 min., weigh the remainder of the gauze pad not removed by the mouse. Determine the weight of the gauze used for nestlet construction by subtraction. Compare the results for test compound treated mice to the results for vehicle control treated mice with Dunnett's test.
Clinically effective OCD treatment standard compounds suppress nestlet shredding at doses that are devoid of motor-impairing effects as measured by the rotorod test. […]

Wistar rats [4] = test: Schedule-induced polydipsia; type: in vivo, rat
Excerpt: Schedule-Induced Polydipsia
Food-deprived rats exposed to intermittent presentations of food will drink amounts of water that are far in excess of their normal daily intake and in excess of their intake when given all of their food at one time (Falk J L. “Production of polydipsia in normal rats by an intermittent food schedule”, Science 133: 195-196, (1961)). This excessive behavior is persistent and has been used to model OCD.
Maintain Wistar rats on a food restricted diet (to maintain 85% free feeding weight), but with free access to water. Train the rats in a behavioral testing chamber to press a lever to receive a food pellet under a fixed interval schedule, such that the rats are rewarded with a 45 mg food pellet the first time they press a lever after a 120 second interval has elapsed. The fixed interval is then reset to 120 seconds and the process repeated. Thus, during a 90 min. test session, the rats can earn a maximum of 45 pellets. The behavioral chamber is also equipped with a water bottle that is weighed before and after the session to determine the amount of water consumed.
Administer test compounds on Tuesdays and Fridays. […] Compare the rates of lever pressing and water consumption for each animal's performance during sessions after test compound treatment with that animal's performance during control sessions, expressed as a percent of the control rate. […]

male NIH Swiss mice [5] = conditions: cited from earlier work

For `CN(C)CCCN1c2ccccc2CCc2ccc(Cl)cc21` [chlomipramine], which “Schedule-induced polydipsia (clinically effective OCD treatment standards)” value (Wistar rats [1]) is on record?
The value was “suppress schedule-induced polydipsia without producing notable changes in motor patterns, food intake, or behavior the following day”.

Which “Marble burying behavior (with rotorod performance)” value (male NIH Swiss mice [2]) does the source give for `CN(C)CCCN1c2ccccc2Sc2ccc(Cl)cc21` [chlorpromazine] here?
The value was “decrease marble burying only at doses that also disrupt rotorod performance”.

With `C[C@H](N)Cc1ccccc1` [d-amphetamine] as the compound, how does the “Nestlet shredding (with motor effects)” value (male NIH Swiss mice [3]) read?
Its value is “decreases nestlet shredding only at doses that produce motoric side effects”.

What about the “Suppression of excessive drinking with co-administration of 5-HT2C antagonist” value (Wistar rats [4]) of the same compound?
Its value is “not prevented by the 5HT2C receptor antagonist”.

And the “Schedule-induced polydipsia (excessive drinking)” value (Wistar rats [4]; 90 min session)?
Its value is “decreases excessive drinking only at behaviorally stimulating doses”.

What does the source list for `CNCCC(Oc1ccc(C(F)(F)F)cc1)c1ccccc1` (stereo not shown) [fluoxetine]?
Schedule-induced polydipsia (clinically effective OCD treatment standards) (Wistar rats [1]): suppress schedule-induced polydipsia without producing notable changes in motor patterns, food intake, or behavior the following day; Marble burying (clinical standards, literature) (male NIH Swiss mice [5]): decrease burying
